Source: PubChem BioAssay AID248 (DTP/NCI, 2004)
Where “and” joins values, the source holds several entries; their conditions need not be identical. Identical values can stand only once. Inconclusive results and toxic doses are left out. Cut-off read from the data, not from the text of the source: active = T/C of 150% or more; inactive = T/C below 125%.

System: L1210 leukemia ip in BDF1 mice, survival T/C
Experiment: NCI In Vivo Anticancer Drug Screen. Data for tumor model L1210 Leukemia (intraperitoneal) in B6D2F1 (BDF1) mice
Settings: endpoint: mean survival time, higher = longer survival
Summary of the method: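 Tumor cells were implanted, animals were treated, and survival was followed. The result divides the treated measurement by the vehicle-control measurement.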

[1] = dose: 100.0 mg/kg/injection, schedule: Q01DX009 (ip), vehicle: Klucel (hydroxypropylcellulose) (HPC)
[2] = dose: 50.0 mg/kg/injection, schedule: Q01DX009 (ip), vehicle: Klucel (hydroxypropylcellulose) (HPC)
[3] = dose: 100.0 mg/kg/injection, schedule: Q01DX001 (ip), vehicle: saline with Tween-80
[4] = dose: 200.0 mg/kg/injection, schedule: Q01DX001 (ip), vehicle: saline with Tween-80
[5] = dose: 50.0 mg/kg/injection, schedule: Q04DX002 (ip), vehicle: Klucel (hydroxypropylcellulose) (HPC)
[6] = dose: 100.0 mg/kg/injection, schedule: Q04DX002 (ip), vehicle: Klucel (hydroxypropylcellulose) (HPC)

Measured: T/C

ClCc1nc(-c2ccco2)no1
inactive: [1] 95 % of control

CC(=O)OC1CCP(C)(=O)C1 (stereo not drawn)
inactive: dose: 100.0 mg/kg/injection, schedule: Q04DX003 (ip), vehicle: saline 98 % of control | dose: 200.0 mg/kg/injection, schedule: Q04DX003 (ip), vehicle: saline 96 % of control | dose: 400.0 mg/kg/injection, schedule: Q04DX003 (ip), vehicle: saline 93 % of control

c1cc[c]([Pb]([c]2ccccc2)([c]2ccccc2)[n]2ccnc2)cc1
inactive: dose: 5.0 mg/kg/injection, schedule: Q01DX001 (ip), vehicle: other 106 % of control | dose: 10.0 mg/kg/injection, schedule: Q01DX001 (ip), vehicle: other 98 % of control

O=C1CCCCC1(CCc1ccncc1)CCc1ccncc1
inactive: dose: 44.0 mg/kg/injection, schedule: Q01DX Z (ip), vehicle: methylcellulose (MC) 96 % of control | dose: 66.0 mg/kg/injection, schedule: Q01DX Z (ip), vehicle: methylcellulose (MC) 102 % of control | dose: 100.0 mg/kg/injection, schedule: Q01DX Z (ip), vehicle: methylcellulose (MC) 109 % of control

NCC(O)(c1ccccc1)c1ccccc1
inactive: dose: 12.5 mg/kg/injection, schedule: Q01DX009 (ip), vehicle: Klucel (hydroxypropylcellulose) (HPC) 101 % of control | dose: 25.0 mg/kg/injection, schedule: Q01DX009 (ip), vehicle: Klucel (hydroxypropylcellulose) (HPC) 95 % of control | [2] 89 % of control | dose: 75.0 mg/kg/injection, schedule: Q01DX001 (ip), vehicle: other 100 % of control

CCCCC(=O)N1CCC(C)CC1
inactive: dose: 100.0 mg/kg/injection, schedule: Q04DX002 (ip), vehicle: saline 98 % of control | dose: 200.0 mg/kg/injection, schedule: Q04DX002 (ip), vehicle: saline 91 % of control

CC(C)(Cc1ccccc1)C(C(=O)O)C(=O)O
inactive: dose: 100.0 mg/kg/injection, schedule: Q01DX001 (ip), vehicle: gum acacia 91 % of control | dose: 200.0 mg/kg/injection, schedule: Q01DX001 (ip), vehicle: gum acacia 95 % of control

CC(=O)Oc1cccc2c1C(=O)OC2=O
inactive: [3] 89 % of control | [4] 108 % of control

CCCCCCCCNC(C)C1=C(O)c2ccccc2C(=O)C1=O (stereo not drawn)
inactive: [3] 89 % of control | [4] 86 % of control | dose: 400.0 mg/kg/injection, schedule: Q01DX001 (ip), vehicle: saline with Tween-80 86 % of control

CN(/C(N)=N/[N+](=O)[O-])c1cccnc1
inactive: dose: 6.0 mg/kg/injection, schedule: Q04DX002 (ip), vehicle: Klucel (hydroxypropylcellulose) (HPC) 103 % of control | dose: 12.0 mg/kg/injection, schedule: Q04DX002 (ip), vehicle: Klucel (hydroxypropylcellulose) (HPC) 103 % of control | dose: 25.0 mg/kg/injection, schedule: Q04DX002 (ip), vehicle: Klucel (hydroxypropylcellulose) (HPC) 103 % of control | [2] 103 % of control | [5] 95 % of control | [1] 107 % of control | [6] 91 % of control and 92 % of control

CC(=O)/C(=N\N=C(N)N)c1ccccc1
inactive: dose: 1.88 mg/kg/injection, schedule: Q01DX Z (ip), vehicle: saline 102 % of control | dose: 3.75 mg/kg/injection, schedule: Q01DX Z (ip), vehicle: saline 93 % of control | dose: 3.75 mg/kg/injection, schedule: Q01DX Z (oral), vehicle: other 90 % of control | dose: 7.5 mg/kg/injection, schedule: Q01DX Z (ip), vehicle: saline 98 % of control | dose: 7.5 mg/kg/injection, schedule: Q01DX Z (oral), vehicle: other 98 % of control | dose: 15.0 mg/kg/injection, schedule: Q01DX Z (oral), vehicle: other 96 % of control

CC(C)(C)NC(=O)C(Cl)Cl
inactive: [3] 88 % of control | [4] 98 % of control

COC(=O)/C=C\C=C(\CBr)C(=O)OC
inactive: dose: 6.25 mg/kg/injection, schedule: Q01DX009 (ip), vehicle: saline 104 % of control | dose: 6.25 mg/kg/injection, schedule: Q04DX003 (ip), vehicle: saline sonified 103 % of control | dose: 12.5 mg/kg/injection, schedule: Q01DX009 (ip), vehicle: saline 96 % of control | dose: 12.5 mg/kg/injection, schedule: Q04DX003 (ip), vehicle: saline sonified 97 % of control | dose: 25.0 mg/kg/injection, schedule: Q01DX009 (ip), vehicle: saline 110 % of control | dose: 25.0 mg/kg/injection, schedule: Q04DX003 (ip), vehicle: saline sonified 95 % of control

CCC(=O)NC1CC(OC2CC(O)(C(C)=O)Cc3c(O)c4c(c(O)c32)C(=O)c2c(OC)cccc2C4=O)OC(C)C1O (stereo not drawn)
inactive: dose: 2.0 mg/kg/injection, schedule: Q04DX003 (ip), vehicle: water 104 % of control | dose: 3.12 mg/kg/injection, schedule: Q01DX009 (ip), vehicle: saline with Tween-80 96 % of control | dose: 4.0 mg/kg/injection, schedule: Q04DX003 (ip), vehicle: water 105 % of control | dose: 6.25 mg/kg/injection, schedule: Q01DX009 (ip), vehicle: saline with Tween-80 105 % of control | dose: 8.0 mg/kg/injection, schedule: Q04DX003 (ip), vehicle: water 103 % of control | dose: 12.5 mg/kg/injection, schedule: Q01DX009 (ip), vehicle: saline with Tween-80 105 % of control | dose: 16.0 mg/kg/injection, schedule: Q04DX003 (ip), vehicle: water 101 % of control and 102 % of control | dose: 18.75 mg/kg/injection, schedule: Q04DX003 (ip), vehicle: saline with Tween-80 105 % of control | dose: 25.0 mg/kg/injection, schedule: Q01DX009 (ip), vehicle: saline with Tween-80 111 % of control | dose: 32.0 mg/kg/injection, schedule: Q04DX003 (ip), vehicle: water 116 % of control | dose: 37.5 mg/kg/injection, schedule: Q04DX003 (ip), vehicle: saline with Tween-80 105 % of control | dose: 50.0 mg/kg/injection, schedule: Q01DX009 (ip), vehicle: saline with Tween-80 113 % of control | dose: 64.0 mg/kg/injection, schedule: Q04DX003 (ip), vehicle: water 112 % of control | dose: 75.0 mg/kg/injection, schedule: Q04DX003 (ip), vehicle: saline with Tween-80 105 % of control | dose: 150.0 mg/kg/injection, schedule: Q04DX003 (ip), vehicle: saline with Tween-80 122 % of control | dose: 125.0 micrograms/kg/injection, schedule: Q04DX003 (ip), vehicle: water 100 % of control | dose: 250.0 micrograms/kg/injection, schedule: Q04DX003 (ip), vehicle: water 102 % of control | dose: 500.0 micrograms/kg/injection, schedule: Q04DX003 (ip), vehicle: water 97 % of control | dose: 1000.0 micrograms/kg/injection, schedule: Q04DX003 (ip), vehicle: water 103 % of control | dose: 2000.0 micrograms/kg/injection, schedule: Q04DX003 (ip), vehicle: water 96 % of control

O=c1cc(O)ccn1CC(O)c1ccc(Cl)s1 (stereo not drawn)
inactive: dose: 100.0 mg/kg/injection, schedule: Q01DX009 (ip), vehicle: saline with Tween-80 89 % of control | dose: 100.0 mg/kg/injection, schedule: Q04DX003 (ip), vehicle: saline with Tween-80 100 % of control | dose: 200.0 mg/kg/injection, schedule: Q01DX009 (ip), vehicle: saline with Tween-80 88 % of control | dose: 200.0 mg/kg/injection, schedule: Q04DX003 (ip), vehicle: saline with Tween-80 98 % of control | dose: 400.0 mg/kg/injection, schedule: Q01DX009 (ip), vehicle: saline with Tween-80 94 % of control | dose: 400.0 mg/kg/injection, schedule: Q04DX003 (ip), vehicle: saline with Tween-80 99 % of control

CCc1cc2oc(C)c(C)c2c2nc(C)oc12
inactive: [5] 101 % of control | [6] 99 % of control and 104 % of control | dose: 200.0 mg/kg/injection, schedule: Q04DX002 (ip), vehicle: Klucel (hydroxypropylcellulose) (HPC) 101 % of control | dose: 400.0 mg/kg/injection, schedule: Q04DX002 (ip), vehicle: Klucel (hydroxypropylcellulose) (HPC) 96 % of control
